Tests used:
pitted morningglory = assay: Test F preemergence test; format: in vivo, Ipomoea lacunosa; conditions: scale 0 to 100
Method in brief: (§1)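 Greenhouse screen: test chemical in surfactant-containing non-phytotoxic solvent applied preemergence to sown seeds or postemergence to sugarcane plants; after 14 to 21 days each species scored visually versus controls.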

bermudagrass = assay: Test F preemergence test; format: in vivo, Cynodon dactylon; conditions: scale 0 to 100
Method in brief: as §1

annual bluegrass = assay: Test F preemergence test; format: in vivo, Poa annua; conditions: scale 0 to 100
Method in brief: as §1

johnsongrass = assay: Test F preemergence test; format: in vivo, Sorghum halepense; conditions: scale 0 to 100
Method in brief: as §1

Surinam grass = assay: Test F preemergence test; format: in vivo, Brachiaria decumbens; conditions: scale 0 to 100; for Surinam Grass plant response rating: 125 g ai/ha
Method in brief: as §1

large crabgrass = assay: Test F preemergence test; format: in vivo, Digitaria sanguinalis; conditions: scale 0 to 100
Method in brief: as §1

broadleaf signalgrass = assay: Test F preemergence test; format: in vivo, Brachiaria platyphylla; conditions: scale 0 to 100; for Signalgrass plant response rating: 125 g ai/ha
Method in brief: as §1

Italian ryegrass = assay: Test F preemergence test; format: in vivo, Lolium multiflorum; conditions: scale 0 to 100; for Ryegrass, Italian plant response rating: 125 g ai/ha
Method in brief: as §1

goosegrass = assay: Test F preemergence test; format: in vivo, Eleusine indica; conditions: scale 0 to 100
Method in brief: as §1

morningglory = assay: Test C pre-/postemergence test; format: in vivo, Ipomoea coccinea
Method in brief: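 Test chemicals were formulated with surfactant in a non-phytotoxic solvent and sprayed both on freshly planted seeds (preemergence) and on 1- to 4-leaf plants of 2–18 cm (postemergence). Flooded-paddy pots received compound directly into 3 cm of standing water, maintained for the test.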

purple nutsedge = assay: Test F preemergence test; format: in vivo, Cyperus rotundus; conditions: scale 0 to 100
Method in brief: as §1

naked crabgrass = assay: Test F preemergence test; format: in vivo, Digitaria nuda; conditions: scale 0 to 100
Method in brief: as §1

kochia = assay: Test F preemergence test; format: in vivo, Kochia scoparia; conditions: scale 0 to 100
Method in brief: as §1

common ragweed = assay: Test F preemergence test; format: in vivo, Ambrosia elation; conditions: scale 0 to 100; for Ragweed plant response rating: 125 g ai/ha
Method in brief: as §1

rice = assay: Test C flooded paddy test; format: in vivo, Oryza sativa; conditions: Flood
Method in brief: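 Compound was added to standing water 3 cm above soil, flood maintained, and plants held in a greenhouse before visual scoring against controls at 13 to 15 days.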

Virginia dayflower = assay: Test F preemergence test; format: in vivo, Commelina virginica; conditions: scale 0 to 100
Method in brief: as §1

[1] = 62 g ai/ha, Preemergence, scale 0 to 100
[2] = 125 g ai/ha, preemergence, scale 0 (no effect) to 100 (complete control)
[3] = Preemergence, 31 g ai/ha, scale 0 to 100 (0 no effect, 100 complete control)
[4] = preemergence, 250 g ai/ha, scale 0 (no effect) to 100 (complete control)

Cn1nc(C(F)(F)F)c(C[S+]([O-])c2ccc(F)c[n+]2[O-])c1OCC(F)(F)F (centres unmarked) [Compound 67]
90: Morningglory plant response rating (pitted morningglory; 125 g ai/ha, preemergence) | Plant response rating, Signalgrass (broadleaf signalgrass; Preemergence, 62 g ai/ha) | Plant response rating, Ragweed (common ragweed; Preemergence, 62 g ai/ha)
35: Plant response rating, Johnsongrass (johnsongrass; 16 g ai/ha, preemergence)
65: Plant response rating, Crabgrass, Large (large crabgrass; 16 g ai/ha, preemergence) | Plant response rating, Ragweed (common ragweed; Preemergence, 31 g ai/ha)
100: Bermudagrass plant response rating (bermudagrass; 125 g ai/ha, preemergence) | Bluegrass plant response rating (annual bluegrass; 125 g ai/ha, preemergence) | Surinam Grass plant response rating (Surinam grass; preemergence) | Plant response rating, Surinam Grass (Surinam grass; Preemergence, 62 g ai/ha) | Crabgrass, Large plant response rating (large crabgrass; 125 g ai/ha, preemergence) | Ryegrass, Italian plant response rating (Italian ryegrass; preemergence) | Plant response rating, Ryegrass, Italian (Italian ryegrass; Preemergence, 62 g ai/ha) | Goosegrass plant response rating (goosegrass; 125 g ai/ha, preemergence) | Morningglory plant response rating (morningglory; [2]) | Morningglory plant response rating (morningglory; [4]) | Crabgrass, Naked plant response rating (naked crabgrass; 62 g ai/ha, Preemergence) | Crabgrass, Naked plant response rating (naked crabgrass; 125 g ai/ha, preemergence) | Kochia plant response rating (kochia; 62 g ai/ha, Preemergence) | Kochia plant response rating (kochia; 125 g ai/ha, preemergence)
80: Bluegrass plant response rating (annual bluegrass; 62 g ai/ha, Preemergence) | Goosegrass plant response rating (goosegrass; 62 g ai/ha, Preemergence)
98: Bermudagrass plant response rating (bermudagrass; 62 g ai/ha, Preemergence) | Crabgrass, Large plant response rating (large crabgrass; 62 g ai/ha, Preemergence) | Plant response rating, Crabgrass, Large (large crabgrass; Preemergence, 31 g ai/ha) | Signalgrass plant response rating (broadleaf signalgrass; preemergence) | Ragweed plant response rating (common ragweed; preemergence)
50: Plant response rating, Goosegrass (goosegrass; 16 g ai/ha, preemergence) | Plant response rating, Dayflower (Virginia dayflower; 16 g ai/ha, preemergence)
95: Johnsongrass plant response rating (johnsongrass; 125 g ai/ha, preemergence) | Plant response rating, Surinam Grass (Surinam grass; Preemergence, 31 g ai/ha) | Morningglory plant response rating (morningglory; [1]) | Purple Nutsedge plant response rating (purple nutsedge; 125 g ai/ha, preemergence)
30: Plant response rating, Signalgrass (broadleaf signalgrass; Preemergence, 31 g ai/ha) | Plant response rating, Purple Nutsedge (purple nutsedge; Preemergence, 31 g ai/ha)
60: Plant response rating, Morningglory (morningglory; [3]) | Purple Nutsedge plant response rating (purple nutsedge; 62 g ai/ha, Preemergence) | Plant response rating, Crabgrass, Naked (naked crabgrass; 16 g ai/ha, preemergence) | Plant response rating, Kochia (kochia; Preemergence, 31 g ai/ha) | Plant response rating, Rice (rice; 62 g ai/ha, scale 0 to 100 (0 no effect, 100 complete control))
20: Plant response rating, Bermudagrass (bermudagrass; 16 g ai/ha, preemergence) | Plant response rating, Ragweed (common ragweed; 16 g ai/ha, preemergence)
75: Plant response rating, Bermudagrass (bermudagrass; Preemergence, 31 g ai/ha) | Johnsongrass plant response rating (johnsongrass; 62 g ai/ha, Preemergence) | Plant response rating, Johnsongrass (johnsongrass; Preemergence, 31 g ai/ha) | Plant response rating, Surinam Grass (Surinam grass; 16 g ai/ha, preemergence) | Plant response rating, Ryegrass, Italian (Italian ryegrass; Preemergence, 31 g ai/ha)
40: Plant response rating, Morningglory (pitted morningglory; 16 g ai/ha, preemergence) | Plant response rating, Ryegrass, Italian (Italian ryegrass; 16 g ai/ha, preemergence)
70: Morningglory plant response rating (pitted morningglory; 62 g ai/ha, Preemergence) | Plant response rating, Morningglory (pitted morningglory; Preemergence, 31 g ai/ha) | Plant response rating, Goosegrass (goosegrass; Preemergence, 31 g ai/ha) | Plant response rating, Crabgrass, Naked (naked crabgrass; Preemergence, 31 g ai/ha)
0: Plant response rating, Bluegrass (annual bluegrass; 16 g ai/ha, preemergence) | Plant response rating, Bluegrass (annual bluegrass; Preemergence, 31 g ai/ha) | Plant response rating, Signalgrass (broadleaf signalgrass; 16 g ai/ha, preemergence) | Plant response rating (0 to 100), Morningglory (morningglory; Postemergence, 31 g ai/ha) | Plant response rating, Morningglory (morningglory; Postemergence, 62 g ai/ha, scale 0 to 100, 0 no effect, 100 complete control) | Plant response rating, Morningglory (morningglory; Postemergence, 125 g ai/ha, scale 0 to 100, 0 no effect, 100 complete control) | Plant response rating, Morningglory (morningglory; Postemergence, 250 g ai/ha, scale 0 to 100, 0 no effect, 100 complete control) | Plant response rating, Purple Nutsedge (purple nutsedge; 16 g ai/ha, preemergence) | Plant response rating, Kochia (kochia; 16 g ai/ha, preemergence)

Cc1cc[n+]([O-])c(S(=O)(=O)C(Cl)c2c(C(F)(F)F)nn(C)c2OCC(F)(F)F)c1 (racemic) [Compound 37]
35: Morningglory plant response rating (pitted morningglory; 125 g ai/ha, preemergence) | Plant response rating, Bermudagrass (bermudagrass; 16 g ai/ha, preemergence) | Plant response rating, Bermudagrass (bermudagrass; Preemergence, 31 g ai/ha) | Plant response rating, Crabgrass, Large (large crabgrass; Preemergence, 31 g ai/ha) | Plant response rating, Signalgrass (broadleaf signalgrass; Preemergence, 31 g ai/ha)
15: Plant response rating, Rice (rice; 31 g ai/ha, scale 0 to 100 (0 no effect, 100 complete control)) | Plant response rating, Rice (rice; 62 g ai/ha, scale 0 to 100, 0 no effect, 100 complete control, 13 to 15 days)
50: Crabgrass, Large plant response rating (large crabgrass; 62 g ai/ha, Preemergence) | Crabgrass, Large plant response rating (large crabgrass; 125 g ai/ha, preemergence)
90: Surinam Grass plant response rating (Surinam grass; preemergence) | Plant response rating, Ryegrass, Italian (Italian ryegrass; Preemergence, 62 g ai/ha) | Plant response rating, Dayflower (Virginia dayflower; Preemergence, 31 g ai/ha)
40: Plant response rating, Crabgrass, Naked (naked crabgrass; 16 g ai/ha, preemergence) | Crabgrass, Naked plant response rating (naked crabgrass; 62 g ai/ha, Preemergence)
20: Plant response rating, Signalgrass (broadleaf signalgrass; 16 g ai/ha, preemergence) | Plant response rating, Ryegrass, Italian (Italian ryegrass; 16 g ai/ha, preemergence)
100: Johnsongrass plant response rating (johnsongrass; 125 g ai/ha, preemergence) | Ryegrass, Italian plant response rating (Italian ryegrass; preemergence) | Crabgrass, Naked plant response rating (naked crabgrass; 125 g ai/ha, preemergence) | Dayflower plant response rating (Virginia dayflower; 62 g ai/ha, Preemergence) | Dayflower plant response rating (Virginia dayflower; 125 g ai/ha, preemergence)
75: Bermudagrass plant response rating (bermudagrass; 125 g ai/ha, preemergence) | Johnsongrass plant response rating (johnsongrass; 62 g ai/ha, Preemergence) | Plant response rating, Johnsongrass (johnsongrass; Preemergence, 31 g ai/ha) | Plant response rating, Ryegrass, Italian (Italian ryegrass; Preemergence, 31 g ai/ha) | Goosegrass plant response rating (goosegrass; 62 g ai/ha, Preemergence)
98: Goosegrass plant response rating (goosegrass; 125 g ai/ha, preemergence)
95: Signalgrass plant response rating (broadleaf signalgrass; preemergence)
0: Plant response rating, Morningglory (pitted morningglory; 16 g ai/ha, preemergence) | Morningglory plant response rating (pitted morningglory; 62 g ai/ha, Preemergence) | Plant response rating, Morningglory (pitted morningglory; Preemergence, 31 g ai/ha) | Plant response rating, Bluegrass (annual bluegrass; 16 g ai/ha, preemergence) | Plant response rating, Surinam Grass (Surinam grass; 16 g ai/ha, preemergence) | Plant response rating, Crabgrass, Large (large crabgrass; 16 g ai/ha, preemergence) | Morningglory plant response rating (morningglory; [1]) | Morningglory plant response rating (morningglory; [2]) | Plant response rating, Morningglory (morningglory; [3]) | Plant response rating, Purple Nutsedge (purple nutsedge; 16 g ai/ha, preemergence) | Purple Nutsedge plant response rating (purple nutsedge; 62 g ai/ha, Preemergence) | Purple Nutsedge plant response rating (purple nutsedge; 125 g ai/ha, preemergence) | Plant response rating, Purple Nutsedge (purple nutsedge; Preemergence, 31 g ai/ha) | Plant response rating, Kochia (kochia; 16 g ai/ha, preemergence) | Kochia plant response rating (kochia; 62 g ai/ha, Preemergence) | Kochia plant response rating (kochia; 125 g ai/ha, preemergence) | Plant response rating, Kochia (kochia; Preemergence, 31 g ai/ha) | Plant response rating, Ragweed (common ragweed; 16 g ai/ha, preemergence) | Ragweed plant response rating (common ragweed; preemergence) | Plant response rating, Ragweed (common ragweed; Preemergence, 62 g ai/ha) | Plant response rating, Ragweed (common ragweed; Preemergence, 31 g ai/ha) | Plant response rating, Dayflower (Virginia dayflower; 16 g ai/ha, preemergence)
65: Bermudagrass plant response rating (bermudagrass; 62 g ai/ha, Preemergence) | Plant response rating, Signalgrass (broadleaf signalgrass; Preemergence, 62 g ai/ha) | Plant response rating, Goosegrass (goosegrass; 16 g ai/ha, preemergence) | Plant response rating, Goosegrass (goosegrass; Preemergence, 31 g ai/ha)
60: Bluegrass plant response rating (annual bluegrass; 62 g ai/ha, Preemergence) | Plant response rating, Surinam Grass (Surinam grass; Preemergence, 62 g ai/ha) | Plant response rating, Surinam Grass (Surinam grass; Preemergence, 31 g ai/ha) | Morningglory plant response rating (morningglory; [4])
70: Plant response rating, Rice (rice; 250 g ai/ha, scale 0 to 100, 0 no effect, 100 complete control, 13 to 15 days)
30: Plant response rating, Johnsongrass (johnsongrass; 16 g ai/ha, preemergence)
80: Bluegrass plant response rating (annual bluegrass; 125 g ai/ha, preemergence)
25: Plant response rating, Rice (rice; 125 g ai/ha, scale 0 to 100, 0 no effect, 100 complete control, 13 to 15 days)
10: Plant response rating, Bluegrass (annual bluegrass; Preemergence, 31 g ai/ha)
